For one assay, the target named is T1, FLT3 (Homo sapiens, UniProt P36888).
T1 construct: made in house
T1 sequence (P36888 27-993): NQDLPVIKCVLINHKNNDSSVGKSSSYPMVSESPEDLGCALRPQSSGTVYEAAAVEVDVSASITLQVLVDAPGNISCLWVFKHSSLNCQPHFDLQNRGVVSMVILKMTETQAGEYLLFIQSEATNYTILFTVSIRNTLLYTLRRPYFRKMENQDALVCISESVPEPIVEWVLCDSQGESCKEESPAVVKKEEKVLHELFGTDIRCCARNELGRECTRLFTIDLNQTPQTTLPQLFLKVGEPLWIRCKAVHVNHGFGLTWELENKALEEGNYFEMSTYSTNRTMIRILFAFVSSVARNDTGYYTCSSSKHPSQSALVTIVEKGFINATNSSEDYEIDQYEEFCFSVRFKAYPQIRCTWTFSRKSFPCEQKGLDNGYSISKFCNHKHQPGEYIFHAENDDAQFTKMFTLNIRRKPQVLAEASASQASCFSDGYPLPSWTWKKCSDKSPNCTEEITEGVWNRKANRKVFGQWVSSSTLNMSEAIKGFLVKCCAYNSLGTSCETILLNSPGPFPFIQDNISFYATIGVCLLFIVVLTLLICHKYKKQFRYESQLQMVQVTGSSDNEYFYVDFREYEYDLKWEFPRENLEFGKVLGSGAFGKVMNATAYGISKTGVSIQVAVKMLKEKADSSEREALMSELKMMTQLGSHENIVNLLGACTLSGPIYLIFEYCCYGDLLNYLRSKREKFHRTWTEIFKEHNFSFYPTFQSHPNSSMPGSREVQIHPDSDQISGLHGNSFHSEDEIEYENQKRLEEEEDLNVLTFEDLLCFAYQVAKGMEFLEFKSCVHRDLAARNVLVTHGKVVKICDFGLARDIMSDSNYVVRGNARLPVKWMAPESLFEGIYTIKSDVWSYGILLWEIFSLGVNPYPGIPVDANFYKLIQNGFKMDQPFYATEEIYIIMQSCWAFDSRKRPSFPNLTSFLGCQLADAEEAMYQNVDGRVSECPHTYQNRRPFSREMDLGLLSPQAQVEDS
The experiment in a line: Competition binding assay, FLT3 Kd. In outline:
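First, biotinylated affinity ligands were loaded onto streptavidin magnetic beads and blocked. Kinase, beads and compound were then equilibrated 1 hour at room temperature, washed, and eluted with non-biotinylated ligand. Eluted kinase was measured by qPCR, with Kd fitted from an eleven-point threefold dilution series.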

Another assay deals with CSF1R (Homo sapiens, UniProt P07333). In words: HEK293 CSF1R phosphorylation MSD assay. The arrangement: expressed in transfected cells; host or cells: HEK293. Particulars: 2 h compound, human M-CSF 50 ng/mL for 5 min; read-out: HEK293 pCSF1R M-CSF MSD:IC50. It is filed as cell-based. The essentials: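 Ligand-induced CSF1R autophosphorylation was measured by MSD sandwich assay: CSF1R-FKBP from lysates captured via FK506, anti-phosphotyrosine readout. Cells were exposed to compound for 2 h (9-point, half-log, 0.5% DMSO) before 5 min 50 ng/mL M-CSF. Reported IC50 is the mean of duplicate-plate IC50s relative to DMSO control.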
CSF1R, sequence (P07333 20-972): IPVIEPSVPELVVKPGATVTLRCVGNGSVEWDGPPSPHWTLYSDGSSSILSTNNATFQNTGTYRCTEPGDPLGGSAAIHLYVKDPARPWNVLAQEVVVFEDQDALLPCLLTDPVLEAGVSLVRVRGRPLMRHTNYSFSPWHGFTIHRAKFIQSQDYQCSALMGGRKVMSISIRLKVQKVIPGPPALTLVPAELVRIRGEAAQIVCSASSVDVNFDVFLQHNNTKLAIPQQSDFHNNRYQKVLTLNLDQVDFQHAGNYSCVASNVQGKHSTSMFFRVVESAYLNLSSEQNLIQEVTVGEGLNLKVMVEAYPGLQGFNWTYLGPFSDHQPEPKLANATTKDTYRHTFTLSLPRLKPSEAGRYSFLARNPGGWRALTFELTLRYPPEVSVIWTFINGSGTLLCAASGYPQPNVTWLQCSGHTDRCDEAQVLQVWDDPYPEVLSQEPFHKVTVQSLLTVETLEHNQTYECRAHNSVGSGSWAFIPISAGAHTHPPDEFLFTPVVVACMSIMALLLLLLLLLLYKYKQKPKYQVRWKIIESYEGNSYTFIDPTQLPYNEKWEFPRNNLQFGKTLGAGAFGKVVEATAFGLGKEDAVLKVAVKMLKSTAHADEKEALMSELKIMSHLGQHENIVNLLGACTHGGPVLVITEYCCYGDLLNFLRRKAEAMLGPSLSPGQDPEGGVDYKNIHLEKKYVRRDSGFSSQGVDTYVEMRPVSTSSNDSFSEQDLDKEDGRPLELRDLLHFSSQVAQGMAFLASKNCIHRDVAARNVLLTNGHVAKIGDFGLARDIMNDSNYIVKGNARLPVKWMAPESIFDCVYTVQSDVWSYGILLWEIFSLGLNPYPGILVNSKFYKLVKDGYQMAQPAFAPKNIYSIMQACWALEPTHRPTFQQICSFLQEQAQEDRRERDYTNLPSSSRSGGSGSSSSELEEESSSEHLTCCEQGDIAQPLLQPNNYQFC

Broadly, the Kd is the free concentration of one partner at which half of the binding sites on the other are occupied at equilibrium, for simple one-to-one binding. A high value points to a looser complex. As a reminder, the IC50 is the point on the concentration scale where inhibition reaches its midpoint. As to `O[C@@H]1CCCC[C@H]1Nc1nc2ccc(Cn3cnc4cccnc43)cc2o1` [Example 56, (1R,2R)-2-((6-((3H-imidazo[4,5-b]pyridin-3-yl)methyl)benzo[d]oxazol-2-yl)amino)cyclohexanol], the equilibrium dissociation constant (Kd) at FLT3 lay in the range of 200 to 1000 nM. The concentration for half-maximal inhibition (IC50) on CSF1R fell in the range of 50 to 200 nM.

For the compound `O[C@@H]1Cc2ccccc2[C@H]1Nc1nc2ccc(Cn3cnc4cccnc43)cc2o1` [Example 57, (1R,2R)-1-((6-((3H-imidazo[4,5-b]pyridin-3-yl)methyl)benzo[d]oxazol-2-yl)amino)-2,3-dihydro-1H-inden-2-ol], the Kd on FLT3 is 200 to 1000 nM. In addition, the half-inhibitory concentration (IC50) at CSF1R was 50 to 200 nM.

`ON=C1CCCC[C@H]1Nc1nc2ccc(Cn3cnc4cccnc43)cc2s1` [Example 58, (R)-2-((6-((3H-imidazo[4,5-b]pyridin-3-yl)methyl)benzo[d]thiazol-2-yl)amino)cyclohexanone oxime] came in with a dissociation constant Kd at FLT3 of 1000 to 5000 nM. In addition, the IC50 on CSF1R was in the range of 50 to 200 nM.

In turn, `O[C@@H]1CCCC[C@H]1Nc1nc2ccc(Cn3cnc4cc(Br)cnc43)cc2o1` [Example 61, (1R,2R)-2-((6-((6-bromo-3H-imidazo[4,5-b]pyridin-3-yl)methyl)benzo[d]oxazol-2-yl)amino)cyclohexanol] registered a Kd on FLT3 of no more than 200 nM. Besides, the half-inhibitory concentration (IC50) on CSF1R is no more than 50 nM.

At FLT3, `O[C@@H]1Cc2ccccc2[C@H]1Nc1nc2ccc(Cn3cnc4cc(Br)cnc43)cc2o1` [Example 62, (1R,2R)-1-((6-((6-bromo-3H-imidazo[4,5-b]pyridin-3-yl)methyl)benzo[d]oxazol-2-yl)amino)-2,3-dihydro-1H-inden-2-ol] registered a Kd of 200 to 1000 nM. In addition, at CSF1R, the IC50 was no more than 50 nM.

Consider `OC[C@@H](Nc1nc2ccc(Cn3cnc4cccnc43)cc2s1)C1CCCCC1` [Example 63, (S)-2-((6-((3H-imidazo[4,5-b]pyridin-3-yl)methyl)benzo[d]thiazol-2-yl)amino)-2-cyclohexylethanol], for which, on FLT3, the dissociation constant Kd was no more than 200 nM. Besides, the IC50 at CSF1R fell in the range of 50 to 200 nM.

Take `OC[C@H](Nc1nc2ccc(Cn3cnc4cccnc43)cc2s1)C1CCCCC1` [Example 64, (R)-2-((6-((3H-imidazo[4,5-b]pyridin-3-yl)methyl)benzo[d]thiazol-2-yl)amino)-2-cyclohexylethanol]: the Kd on FLT3 lay in the range of 200 to 1000 nM. The half-maximal inhibitory concentration (IC50) on CSF1R was in the range of 200 to 500 nM.

With `COc1cc2c(cc1C#N)ncn2Cc1ccc2nc(N[C@@H]3CCCC[C@H]3O)sc2c1` [Example 65, 1-((2-(((1R,2R)-2-hydroxycyclohexyl)amino)benzo[d]thiazol-6-yl)methyl)-6-methoxy-1H-benzo[d]imidazole-5-carbonitrile], at FLT3, the Kd is 1000 to 5000 nM. Besides, the 50% inhibitory concentration (IC50) at CSF1R lay in the range of 50 to 200 nM.

In turn, `OC[C@@H]1CCCC[C@H]1Nc1nc2ccc(Cn3cnc4cccnc43)cc2s1` [Example 66, ((1R,2R)-2-((6-((3H-imidazo[4,5-b]pyridin-3-yl)methyl)benzo[d]thiazol-2-yl)amino)cyclohexyl)methanol] had a Kd on FLT3 greater than 5000 nM. On CSF1R, the IC50 lay in the range of 50 to 200 nM.

The compound `CC(=O)c1cnc2c(c1)ncn2Cc1ccc2nc(N[C@@H]3CCCC[C@H]3O)sc2c1` [Example 73, 1-(3-((2-(((1R,2R)-2-hydroxycyclohexyl)amino)benzo[d]thiazol-6-yl)methyl)-3H-imidazo[4,5-b]pyridin-6-yl)ethanone] gave a Kd on FLT3 of 1000 to 5000 nM. Also, at CSF1R, the IC50 was no more than 50 nM.

At FLT3, `CS(=O)(=O)c1cnc2c(c1)ncn2Cc1ccc2nc(N[C@@H]3CCCC[C@H]3O)sc2c1` [Example 74, (1R,2R)-2-((6-((6-(methylsulfonyl)-3H-imidazo[4,5-b]pyridin-3-yl)methyl)benzo[d]thiazol-2-yl)amino)cyclohexanol] came in with a Kd of no more than 200 nM. On CSF1R, the IC50 lay in the range of 50 to 200 nM.

`OC1(CNc2nc3ccc(Cn4cnc5cccnc54)cc3s2)CCCCC1` [Example 75, 1-(((6-((3H-imidazo[4,5-b]pyridin-3-yl)methyl)benzo[d]thiazol-2-yl)amino)methyl)cyclohexanol]: on FLT3, the Kd was in the range of 1000 to 5000 nM. For the same compound, the IC50 on CSF1R was in the range of 50 to 200 nM.

As to `OCC1(CNc2nc3ccc(Cn4cnc5cccnc54)cc3s2)CCCCC1` [Example 76, (1-(((6-((3H-imidazo[4,5-b]pyridin-3-yl)methyl)benzo[d]thiazol-2-yl)amino)methyl)cyclohexyl)methanol], the equilibrium dissociation constant (Kd) on FLT3 is no more than 200 nM. For the same compound, on CSF1R, the half-inhibitory concentration (IC50) lay within 50 to 200 nM.

Regarding `Cn1cc(-c2cn(Cc3ccc4nc(N[C@@H]5CCCC[C@H]5O)oc4c3)cn2)cn1` [Example 77, (1R,2R)-2-((6-((4-(1-methyl-1H-pyrazol-4-yl)-1H-imidazol-1-yl)methyl)benzo[d]oxazol-2-yl)amino)cyclohexanol], at FLT3, the Kd was 1000 to 5000 nM. Also, the IC50 at CSF1R lay in the range of 50 to 200 nM.

As for `O[C@@H]1Cc2ccccc2[C@H]1Nc1nc2ccc(Cn3cnc4ccc(Br)nc43)cc2s1` [Example 80, (1R,2R)-1-((6-((5-bromo-3H-imidazo[4,5-b]pyridin-3-yl)methyl)benzo[d]thiazol-2-yl)amino)-2,3-dihydro-1H-inden-2-ol], the Kd on FLT3 was in the range of 200 to 1000 nM. At CSF1R, the IC50 is no more than 50 nM.

Take `O=C(O)c1cnc2c(c1)ncn2Cc1ccc2nc(N[C@@H]3CCCC[C@H]3O)sc2c1` [Example 81, 3-((2-(((1R,2R)-2-hydroxycyclohexyl)amino)benzo[d]thiazol-6-yl)methyl)-3H-imidazo[4,5-b]pyridine-6-carboxylic acid]: the dissociation constant Kd on FLT3 lay in the range of 1000 to 5000 nM. Moreover, the half-maximal inhibitory concentration (IC50) on CSF1R was greater than 500 nM.

At FLT3, `O[C@@H]1CCCC[C@H]1Nc1nc2ccc(Cn3cnc4cc(CN5CCOCC5)cnc43)cc2s1` [Example 82, (1R,2R)-2-((6-((6-(morpholinomethyl)-3H-imidazo[4,5-b]pyridin-3-yl)methyl)benzo[d]thiazol-2-yl)amino)cyclohexanol] came in with a Kd of 1000 to 5000 nM. For the same compound, the IC50 on CSF1R was in the range of 200 to 500 nM.

Compound `OCc1cnc2c(c1)ncn2Cc1ccc2nc(N[C@@H]3CCCC[C@H]3O)sc2c1` [Example 84, (1R,2R)-2-((6-((6-(hydroxymethyl)-3H-imidazo[4,5-b]pyridin-3-yl)methyl)benzo[d]thiazol-2-yl)amino)cyclohexanol] gave an equilibrium dissociation constant (Kd) on FLT3 of 1000 to 5000 nM. The concentration for half-maximal inhibition (IC50) at CSF1R was no more than 50 nM.

As to `CSc1cnc2c(c1)ncn2Cc1ccc2nc(N[C@@H]3CCCC[C@H]3O)sc2c1` [Example 85, (1R,2R)-2-((6-((6-(methylthio)-3H-imidazo[4,5-b]pyridin-3-yl)methyl)benzo[d]thiazol-2-yl)amino)cyclohexanol], the Kd at FLT3 lay within 200 to 1000 nM. Moreover, the IC50 at CSF1R is no more than 50 nM.

`CSCc1cnc2c(c1)ncn2Cc1ccc2nc(N[C@@H]3CCCC[C@H]3O)sc2c1` [Example 86, (1R,2R)-2-((6-((6-((methylthio)methyl)-3H-imidazo[4,5-b]pyridin-3-yl)methyl)benzo[d]thiazol-2-yl)amino)cyclohexanol] had an equilibrium dissociation constant (Kd) at FLT3 of 200 to 1000 nM. Also, the half-inhibitory concentration (IC50) on CSF1R was no more than 50 nM.

`N#Cc1ccc2ncn(Cc3ccc4nc(N[C@@H]5CCCC[C@H]5O)sc4c3)c2n1` [Example 87, 3-((2-(((1R,2R)-2-hydroxycyclohexyl)amino)benzo[d]thiazol-6-yl)methyl)-3H-imidazo[4,5-b]pyridine-5-carbonitrile] returned a Kd on FLT3 of 200 to 1000 nM. Moreover, on CSF1R, the IC50 was no more than 50 nM.

`C#Cc1cnc2c(c1)ncn2Cc1ccc2nc(N[C@@H]3CCCC[C@H]3O)sc2c1` [Example 96, (1R,2R)-2-((6-((6-ethynyl-3H-imidazo[4,5-b]pyridin-3-yl)methyl)benzo[d]thiazol-2-yl)amino)cyclohexanol] registered a dissociation constant Kd on FLT3 of no more than 200 nM. The IC50 at CSF1R was no more than 50 nM.

At FLT3, `O[C@@H]1CCCC[C@H]1Nc1nc2ccc(Cn3cnc4cc(N5CCOCC5)cnc43)cc2s1` [Example 97, (1R,2R)-2-((6-((6-morpholino-3H-imidazo[4,5-b]pyridin-3-yl)methyl)benzo[d]thiazol-2-yl)amino)cyclohexanol] came in with a dissociation constant (Kd) of 200 to 1000 nM. At CSF1R, the half-inhibitory concentration (IC50) is no more than 50 nM.

Consider `C=Cc1cnc2c(c1)ncn2Cc1ccc2nc(N[C@@H]3CCCC[C@H]3O)sc2c1` [Example 98, (1R,2R)-2-((6-((6-vinyl-3H-imidazo[4,5-b]pyridin-3-yl)methyl)benzo[d]thiazol-2-yl)amino)cyclohexanol], for which the equilibrium dissociation constant (Kd) at FLT3 is 200 to 1000 nM. Moreover, the IC50 at CSF1R was no more than 50 nM.
